Format in all cases: functional
In one experiment the test system is Mus musculus. As to the kind of experiment: Hepatoprotective activity in mouse model of D-GaIN/LPS-induced liver injury assessed as inhibition of beta-glucuronidase secretion at […] relative to control. The arrangement: scale not given: the % may be the effect or the level left. To be noted: dose 10 µg/ml.
In experiment [1] the test system is HepG2. Nature of the experiment: Hepatoprotective activity against H2O2-induced cell death in human HepG2 cells assessed as elevated level AST at 65.7 uM.
Experiment [2] has as its system HepG2. Nature of the experiment: Hepatoprotective activity against H2O2-induced cell death in human HepG2 cells assessed as elevated level ALT at 65.7 uM.

SMILES strings stand for the structures.

Experimental findings from ChEMBL document CHEMBL5260832, “Hepatoprotective natural triterpenoids” (Eur J Med Chem, 2018) are described below.

Take `CC(C)=CCC[C@]1(C)CC[C@]2(C)[C@H]3CC=C4[C@@H](CC[C@H](O)C4(C)C)[C@]3(C)CC[C@@]2(C)C1`: the Activity in the experiment with Mus musculus is given as 57%. Turning to `C[C@H]1C(=O)CC[C@@H]2[C@]1(C)CC[C@H]1[C@@]2(C)CC[C@@]2(C)[C@@H]3CC(C)(C)CC[C@]3(C)CC[C@]12C` [FRIEDELINE], the Activity in the experiment on HepG2 [1] is given as 67.5%; in the experiment on HepG2 [2] it was 30.8%.
